Measurements published in ChEMBL document CHEMBL1201862, “PubChem BioAssay data set” (2004).
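Where inhibition never reached the appropriate level, the endpoint shown equals the highest concentration tested. Otherwise, values were interpolated linearly from a five-concentration, 48-hour dose response in 96-well plates. Abbreviation: GI50, concentration required for 50% inhibition of growth.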 The source made the active and inactive calls. Rule as the data show it: active = GI50 up to about 1.1 µM and inactive = higher.

Experiments:
Assay in all cases: growth of human tumour cells (NCI), 48 h
786-0 = test system: 786-0
ACHN = test system: ACHN
COLO 205 = test system: COLO 205
DMS-114 = test system: DMS-114
HL-60 = test system: HL-60
HOP-62 = test system: HOP-62
HOP-92 = test system: HOP-92
NCI-H226 = test system: NCI-H226
NCI-H522 = test system: NCI-H522
OVCAR-8 = test system: OVCAR-8
SF-539 = test system: SF-539
SK-MEL-5 = test system: SK-MEL-5
SNB-75 = test system: SNB-75
SW-620 = test system: SW-620
U-251 = test system: U-251
UO-31 = test system: UO-31
SNB-19 = test system: SNB-19

Measured: GI50

C=C(Br)C(C)(Cl)CCC(Br)C(C)(C)Br (stereo not drawn)
inactive: 786-0 > 100 µM | ACHN > 100 µM | COLO 205 57 µM | DMS-114 25.4 µM | HL-60 19.9 µM | HOP-62 > 100 µM | HOP-92 32.7 µM | NCI-H226 > 100 µM | NCI-H522 43.8 µM | OVCAR-8 > 100 µM | SF-539 > 100 µM | SK-MEL-5 65.3 µM | SNB-75 46 µM | SW-620 79.8 µM | U-251 88.9 µM | UO-31 84.3 µM

CC(=O)O/N=C/c1ncccc1CO
inactive: 786-0 > 100 µM | ACHN > 100 µM | COLO 205 > 100 µM | DMS-114 > 100 µM | HL-60 > 100 µM | HOP-62 > 100 µM | HOP-92 > 100 µM | NCI-H226 > 100 µM | NCI-H522 > 100 µM | OVCAR-8 > 100 µM | SF-539 > 100 µM | SK-MEL-5 > 100 µM | SNB-19 > 100 µM | SNB-75 > 100 µM | SW-620 > 100 µM | U-251 > 100 µM | UO-31 > 100 µM

CCOC(=N)/C(=C1\OC(=N)C(c2ccc(Cl)cc2)=C1O)c1ccc(Cl)cc1
inactive: 786-0 17.8 µM | ACHN 21.3 µM | COLO 205 16.6 µM | DMS-114 17.3 µM | HL-60 17.3 µM | HOP-62 22.5 µM | HOP-92 18.5 µM | NCI-H226 20.5 µM | NCI-H522 15 µM | OVCAR-8 15.4 µM | SF-539 16.5 µM | SNB-19 22.7 µM | SNB-75 18.8 µM | SW-620 17.6 µM | U-251 16.8 µM | UO-31 17.5 µM

O=C(Nc1c(O)[nH]c(=S)[nH]c1=O)c1ccco1
inactive: 786-0 > 100 µM | ACHN > 100 µM | COLO 205 > 100 µM | DMS-114 > 100 µM | HL-60 > 100 µM | HOP-62 > 100 µM | HOP-92 38.9 µM | NCI-H226 > 100 µM | NCI-H522 > 100 µM | OVCAR-8 > 100 µM | SF-539 > 100 µM | SK-MEL-5 > 100 µM | SNB-19 > 100 µM | SNB-75 > 100 µM | SW-620 > 100 µM | U-251 > 100 µM | UO-31 > 100 µM

Cc1ccc(NC(=O)CCc2nc(N)nc(N)c2-c2ccccc2)cc1C
inactive: 786-0 > 100 µM | ACHN > 100 µM | COLO 205 > 100 µM | DMS-114 > 100 µM | HL-60 > 100 µM | HOP-62 > 100 µM | HOP-92 > 100 µM | NCI-H226 > 100 µM | NCI-H522 > 100 µM | OVCAR-8 > 100 µM | SF-539 > 100 µM | SK-MEL-5 > 100 µM | SNB-19 > 100 µM | SNB-75 58.7 µM | SW-620 > 100 µM | U-251 > 100 µM | UO-31 > 100 µM

COc1cc2nc(NCCCCCNC(=O)c3ccco3)nc(N)c2cc1OC
inactive: 786-0 21.5 µM | ACHN 52.5 µM | COLO 205 18.2 µM | DMS-114 19.9 µM | HL-60 21.4 µM | HOP-62 24.2 µM | HOP-92 12.2 µM | NCI-H226 32.7 µM | NCI-H522 25.4 µM | OVCAR-8 33.7 µM | SF-539 19.6 µM | SK-MEL-5 19.2 µM | SNB-19 38.2 µM | SNB-75 22.6 µM | SW-620 22.5 µM | U-251 20.5 µM | UO-31 > 100 µM

O=C(C[n+]1ccccc1)N/N=C(/CCC(=O)N(Cc1ccccc1)Cc1ccccc1)CC(=O)c1ccccc1
inactive: 786-0 > 100 µM | ACHN > 100 µM | COLO 205 > 100 µM | DMS-114 > 100 µM | HL-60 > 100 µM | HOP-62 > 100 µM | HOP-92 > 100 µM | NCI-H226 > 100 µM | NCI-H522 > 100 µM | OVCAR-8 > 100 µM | SF-539 > 100 µM | SK-MEL-5 > 100 µM | SNB-19 > 100 µM | SNB-75 > 100 µM | SW-620 > 100 µM | U-251 > 100 µM | UO-31 > 100 µM

CN(C)C(=O)c1ccc([N+](=O)[O-])cc1
inactive: 786-0 > 100 µM | ACHN > 100 µM | COLO 205 > 100 µM | DMS-114 > 100 µM | HL-60 > 100 µM | HOP-62 > 100 µM | HOP-92 > 100 µM | NCI-H226 > 100 µM | NCI-H522 > 100 µM | OVCAR-8 > 100 µM | SF-539 > 100 µM | SK-MEL-5 > 100 µM | SNB-19 > 100 µM | SNB-75 > 100 µM | SW-620 > 100 µM | U-251 > 100 µM | UO-31 > 100 µM

CC(C)c1c2[nH]c3ccccc3c2c(C(C)C)c2[nH]c3ccccc3c12
inactive: 786-0 > 52.5 µM | ACHN 91.8 µM | COLO 205 51.9 µM | DMS-114 > 100 µM | HL-60 16.5 µM | HOP-62 > 100 µM | HOP-92 22.4 µM | NCI-H226 > 47.3 µM | NCI-H522 > 78.7 µM | OVCAR-8 > 100 µM | SF-539 > 100 µM | SK-MEL-5 > 100 µM | SNB-19 > 100 µM | SNB-75 > 89.7 µM | SW-620 > 82 µM | U-251 > 100 µM | UO-31 > 100 µM

CC1(C)OC2CC3COC(=O)C3CC2O1 (stereo not drawn)
inactive: 786-0 > 100 µM | ACHN > 100 µM | COLO 205 > 100 µM | DMS-114 > 100 µM | HL-60 > 100 µM | HOP-62 > 100 µM | HOP-92 > 100 µM | NCI-H226 > 100 µM | NCI-H522 > 100 µM | OVCAR-8 > 100 µM | SF-539 > 100 µM | SK-MEL-5 > 100 µM | SNB-75 > 100 µM | SW-620 > 100 µM | U-251 > 100 µM | UO-31 > 100 µM

Nc1ncnc2c1ncn2[C@]1(CO)C=C(CO)C(O)C1O (stereo partly drawn)
inactive: 786-0 > 100 µM | ACHN > 100 µM | COLO 205 > 100 µM | DMS-114 > 100 µM | HL-60 > 100 µM | HOP-62 52.5 µM | HOP-92 > 100 µM | NCI-H226 > 100 µM | NCI-H522 > 100 µM | SK-MEL-5 > 100 µM | SNB-19 > 100 µM | SNB-75 > 100 µM | SW-620 > 100 µM | U-251 > 100 µM

Nc1nc2c3c(ncn3CC(O)CO2)n1 (stereo not drawn)
inactive: 786-0 > 100 µM | ACHN > 100 µM | COLO 205 > 100 µM | DMS-114 > 100 µM | HL-60 > 100 µM | HOP-62 > 100 µM | HOP-92 > 100 µM | NCI-H226 > 100 µM | NCI-H522 > 100 µM | OVCAR-8 > 100 µM | SF-539 > 100 µM | SK-MEL-5 > 100 µM | SNB-19 > 100 µM | SNB-75 10.8 µM | SW-620 > 100 µM | U-251 > 100 µM | UO-31 > 100 µM
